The values that follow are results of earlier work, collected in US6156769A (priority 2000, dated 2000).

In this series the test system is pruritus. Conditions: i.v. morphine.

With `CN1CC[C@]23c4c5ccc(O)c4O[C@H]2[C@@H](O)C=C[C@H]3[C@H]1C5` [morphine], the generalized itching entry is listed as “about 1 % of patients”.
